Measurements reported in patent US6943186B2, “Methods of treating sepsis” (Yung Shin Pharmaceutical Ind. Co., Ltd., priority 2002, dated 2005).
Values joined by “and” are separate entries in the source; they are usually repeats but may differ in a detail not shown here. Equal values may be shown once. “Also recorded” adds a separate entry of the source.

How the values were obtained:
[1] = test system: LPS-induced septic death in mouse model; assay: LPS-induced endotoxic shock (septic death) and lung histology; assay type: in vivo, mice
Procedure: Induction of Endotoxic Shock and Histological Examination In these experiments, mice (25-30 g, ICR strain) were injected intraperitoneally with 60 mg/kg of LPS (dissolved in PBS), and Compound 3 (suspended in carboxymethyl cellulose) was orally administered after the injection of LPS for 2 and 6 hours. The survival rate was monitored every 3 to 6 hours after LPS injection. For histological examination, the lung tissues were put into the 4% paraformaldehyde and embedded in paraffin. The embedded tissues were sectioned at 6-μm thick, stained with hematoxylin-eosin, and analyzed using a microscopy.

NR8383 macrophages = assay: LPS/interferon γ-induced tumor necrosis factor-α release; assay type: cell-based; settings: control 15.5±1.3, P=0.13, n=4
phosphorylated Akt = assay: Western blot of phosphorylated Akt; assay type: cell-based, rat
Procedure: (§1) Western Blot Analysis After the exposure of cells to the indicated agents for four (for Bcl-2) or six (for cytochrome c) hours, cells were washed twice with ice-cold PBS and reaction was terminated by the addition of 100 μL ice-cold lysis buffer (10 mmol/L Tris-HCl, pH 7.4, 150 mmol/L NaCl, 1 mmol/L EGTA, 0.5 mmol/L phenylmethylsulfonyl fluoride (PMSF), 10 μg/mL aprotinin, 10 μg/mL leupeptin, and 1% Triton X-100). For the detection of phosphorylated Akt, 1 mmol/L Na3VO4, 1 mmol/L NaF, 50 mmol/L tetrasodium pyrophosphate, 10 nmol/L okadaic acid, 0.25% sodium deoxycholate were included in the lysis buffer. Protein content was determined by the Bio-Rad protein assay (Bio-Rad Laboratories, CA, USA). For Western blot analysis, cell lysates (25 μg/lane) were electrophoresized on 10-15% SDS-polyacrylamide gels, and transferred to a nitrocellulose membrane. The membranes were probed with anti-Bcl-2 or anti-α-tubulin monoclonal antibody, or anti-phosphorylated Akt polyclonal antibody. The transferred membranes were developed with a secondary anti-mouse or anti-rabbit antibody as we previously described (Guh et al. (1998) Eur. J. Pharmacol. 359: 281-284). Detection of signal was performed with an enhanced chemiluminescence detection kit (ECL; Amersham International, Little Chalfont, U.K.).

[2] = test system: murine macrophage RAW 264.7 cells; assay: LPS-evoked NO formation; assay type: cell-based; settings: RAW 264.7, LPS 1 μg/mL, 24-hour; control 68.8±13.4; P=0.43, n=4
[3] = test system: intracellular cGMP levels; assay: Assay of cGMP contents; assay type: cell-based, rat
Procedure: (§2) Cell Culture Rat aortic smooth muscle cells (RASMCs) were prepared from Sprague-Dawley rats and cultured in Dulbecco's modified Eagle's medium (DMEM) supplemented with 10% FBS, 100 units/mL penicillin and 100 μg/mL streptomycin (Gibco, Grand Island, N.Y.) as previously described (Yang et al. (2001) Br J Pharmacol. 132: 1531-1541). Cells within six generations were used in the present study. Cells were identified being the smooth muscle cells by immunostaining with monoclonal antibody specific for smooth muscle α-actin.
Assay of cGMP Contents At confluence, monolayer cells were incubated with indicated agents for 10 minutes. Then cells were washed twice with ice-cold PBS and lysed with 0.5 mL NaOH (0.1 mol/L). 0.5 mL HCl (0.1 mol/L) was then added to neutralize the assay solution. After the centrifugation (3,000×g for 3 minutes), the supernatant was used for the detection of cGMP content by using a cGMP ELISA kit.

[4] = Reduction of cytochrome c by superoxide anion (xanthine/xanthine oxidase); assay type: biochemical; settings: xanthine/xanthine oxidase system; control 42.0±2.1; P=0.4, n=4
cytochrome c = assay: Detection of cytochrome c release; assay type: cell-based, rat
Procedure: Detection of Cytochrome c Release Reaction Cells were trypsinized and centrifuged at 800×g for 10 minutes. Then, the cell pellet was re-suspended in 50 μL of extraction buffer containing 20 mmol/L HEPES, pH 7.5, 10 mmol/L KCl, 1.5 mmol/L MgCl2, 1 mmol/L EDTA, 1 mmol/L EGTA, 1 mmol/L dithithretol, 1 mmol/L PMSF) and incubated for 3 minutes on ice. Cells were managed with 30 strokes and centrifuged at 15,000×g for 15 minutes at 4° C. Aliquots of 20 μg protein were resolved on 15% SDS-polyacrylamide gel and then blotted to PVDF membranes. Membranes were incubated with anti-cytochrome c monoclonal antibody. Then, membranes were incubated with anti-mouse IgG and the expression of cytochrome c was detected as described previously.
Western Blot Analysis After the exposure of cells to the indicated agents for four (for Bcl-2) or six (for cytochrome c) hours, cells were washed twice with ice-cold PBS and reaction was terminated by the addition of 100 μL ice-cold lysis buffer (10 mmol/L Tris-HCl, pH 7.4, 150 mmol/L NaCl, 1 mmol/L EGTA, 0.5 mmol/L phenylmethylsulfonyl fluoride (PMSF), 10 μg/mL aprotinin, 10 μg/mL leupeptin, and 1% Triton X-100). […] Protein content was determined by the Bio-Rad protein assay (Bio-Rad Laboratories, CA, USA). […]

caspase-3 = assay: Determination of caspase-3 activity in RASMCs; assay type: cell-based, rat
Procedure: Determination of Caspase-3 Activity
The Caspase-3 activity was assayed with the Caspase-3 colorimetric assay kit (R&D Systems, Inc., Minneapolis, Minn.). After the treatment of cells with indicated agents for ten hours, cells were washed twice with ice-cold PBS, trypsinized, and centrifuged (800×g for 5 minutes), and the cell pellet was re-suspended in pre-cooled lysis buffer obtained from the Caspase-3 colorimetric assay kit. After 10 minutes of incubation on ice, cell homogenates were centrifuged at 10,000×g for 1 minute and supernatants were removed for the determination of caspase-3 activity. Proteolytic reactions were performed in a total volume of 100 μL reaction buffer containing 50 μL of cytosolic extracts and 5 μL DEVD-pNA obtained from the kit. The reaction mixture was incubated at 37° C. for one to two hours and the formation of p-nitroaniline was then measured at 405 nm by an ELISA reader.

[5] = test system: rat aortic smooth muscle cells; assay: Cytotoxicity (MTT) assay and TUNEL labeling, SNP-induced apoptosis in RASMCs; assay type: cell-based; settings: for Cell survival (%) / effect on SNP-induced apoptosis / effect on Compound 3-induced cell proliferation / effect on Compound 3-mediated anti-apoptotic action: RASMCs; for effect on SNP-induced apoptosis: SNP 1 mmol/L, Compound 3 30 μmol/L; for effect on Compound 3-mediated anti-apoptotic action: inhibitor added to Compound 3 + SNP
Procedure: as §2
Cytotoxicity Assay The cytotoxicity assay was carried out using the MTT assay method. MTT (3-(4,5-dimethylthiazol-2-yl)-2,5-diphenyltetrazolium bromide, Sigma Chemical, St. Louis, Mo.) was dissolved in phosphate-buffered saline (PBS) at a concentration of 5 mg/mL and filtered (Millipore, Bedford, Mass.). From this stock solution, 10 μL/100 μL of medium was added to each well of a plate, and the plate was gently shaken and incubated at 37° C. for 2 hours. […] After the loading of MTT, the medium was replaced with 100 μL dimethylsulphoxide (DMSO). The extent of reduction of MTT to formazan within cells was quantified by the measurement of OD550 with an enzyme-linked immunosorbent assay (ELISA) reader.
In Situ Labeling of Apoptotic Cells In situ detection of apoptotic cells was carried out by using a terminal deoxynucleotidyl transferase (TdT) dUTP nick-end labeling (TUNEL) method with an apoptotic detection kit (Promega, Madison, Wis., USA) as described previously (Guh et al. (1998) Mol Pharmacol. 53: 467-474). The TUNEL method identifies apoptotic cells in situ by using TdT to transfer biotin-dUTP to the free 3′-OH of cleaved DNA. The biotin-labeled cleavage sites then were visualized by reaction with fluorescein conjugated avidin (avidin-fluorescein isothiocyanate). Photomicrographs were obtained with a fluorescence microscope (Nikon).

Bcl-2 = assay: Western blot of Bcl-2 levels; assay type: cell-based, rat
Procedure: as §1

cyclooxygenase = settings: Ko et al. (1994) Blood 84: 4226-4233; cited from earlier work
[6] = Free radical-scavenging activity with 1,1-diphenyl-2-picrylhydrazyl; settings: stable radical 1,1-diphenyl-2-picrylhydrazyl; data not shown
[7] = combination of SNP and Compound 3
[8] = single agent alone, mean ± SEM, control 100
[9] = inhibitor added to Compound 3 + SNP

OCc1ccc(-c2nn(Cc3ccccc3)c3ccccc23)o1 [Compound 3]
condition of survived mice after LPS initiation ([1]; LPS 60 mg/kg i.p., Compound 3 10 mg/kg oral post-treatment): remained vigorous more than one month | survival rate of mice ([1]; LPS 60 mg/kg i.p., Compound 3 10 mg/kg oral two hours after LPS): significantly increased | histological examination of lung tissues ([1]; post-treated Compound 3 group, LPS mice): intact blood vessels without the infiltration of blood cells | LPS/interferon γ-induced tumor necrosis factor-α release (NR8383 macrophages): 18.5 ± 1.2 ng/mL | phosphorylated Akt expression (phosphorylated Akt; Compound 3 alone): profound increase | phosphorylated Akt expression (phosphorylated Akt; Compound 3 in combination with SNP): profound increase | NO formation (nitrite) [2]: 53.4 ± 12.3 µmol/L | cGMP synthesis ([3]; Compound 3 alone, basal 2.3±0.3, 10 minutes): 4.2±0.8 fmol/well | cGMP formation [3, 7]: 252.8±81.8 fmol/well | increase of cGMP formation (folds) [3, 7]: more than sixty folds | reduction of cytochrome c by superoxide anion [4]: 40±0.6% | effect on SNP-induced cytochrome c release (cytochrome c; SNP 1 mmol/L): completely prevented | effect on SNP-induced caspase-3 activity (caspase-3; SNP 1 mmol/L, RASMCs): completely inhibited | increase in cell number ([5]; Compound 3 alone, not statistically significant): 11% | Cell survival (%) ([5]; ODQ + Compound 3): 96.1 ± 4.2% | Cell survival (%) ([5]; ODQ + SNP + Compound 3): 69.6 ± 4.0 % | effect on SNP-induced apoptosis [5]: completely abolished | Cell survival (%) ([5]; SNP + Compound 3 (SNP 1 mmol/L, Compound 3 30 μmol/L)): 100.6±5.5% and 102.9 ± 8.1^+ % | ODQ-irresponsible action in Compound 3-mediated effect ([5]; remaining anti-apoptotic effect in presence of ODQ): about 20% | Cell survival (%) [5, 8]: 111.3 ± 8.8% | effect on SNP-induced Bcl-2 down-regulation (Bcl-2; SNP 1 mmol/L): completely prevented | inhibition on cyclooxygenase activity (cyclooxygenase): no inhibition | free radical-scavenging activity [6]: little free radical-scavenging activity

COc1cccc(-c2cc(=O)c3ccccc3o2)c1N [PD98059]
effect on Compound 3-induced cell proliferation [5]: completely inhibited | effect on Compound 3-mediated anti-apoptotic action [5]: significantly reversed; also recorded: not PD98059 reversed

O=c1onc2cnc3ccccc3n12 [ODQ, reference compound]
effect on Compound 3-induced phosphorylated Akt expression (phosphorylated Akt; Compound 3 alone or with SNP): profoundly inhibited | cGMP level ([3]; ODQ + Compound 3 alone): the basal value | cGMP level ([3]; ODQ + combination of SNP and Compound 3): ~21 fmol/well | effect on preventive action of Compound 3 (cytochrome c release) (cytochrome c; [9]): fully reversed | effect on Compound 3-mediated inhibition of caspase-3 activity (caspase-3; [9]): partially but significantly reversed | effect on Compound 3-induced cell proliferation [5]: completely inhibited | effect on SNP-induced apoptosis [5]: no influence | effect on Compound 3-mediated anti-apoptotic action [5]: significantly reversed | Cell survival (%) [5, 8]: 99.5 ± 5.7% | effect on preventive action of Compound 3 (Bcl-2 down-regulation) (Bcl-2; [9]): fully reversed

CCCC(=O)Nc1nc2c(ncn2C2OC3COP(=O)([O-])OC3C2OC(=O)CCC)c(=O)[nH]1.[Na+] (centres unmarked) [dibutyl-cGMP]
effect on SNP-induced apoptosis [5]: significantly reverse

Cn1cc(C2=C(c3cn(CCCSC(=N)N)c4ccccc34)C(=O)NC2=O)c2ccccc21 [Ro-318220]
cell survival ([5]; Ro-318220 added to Compound 3 plus SNP, n=7): 107.1±3.1% | effect on Compound 3-mediated anti-apoptotic action [5]: little influence
